Results from the supplement of paper PMC10307832.

Key:
Experiment in all cases: relative viability (nuclei count vs DMSO), 5 days (fraction); higher = more cells survive
Pemetrexed + Bortezomib = compound: Nc1nc2[nH]cc(CCc3ccc(C(=O)N[C@@H](CCC(=O)O)C(=O)O)cc3)c2c(=O)[nH]1 [Pemetrexed] + CC(C)C[C@H](NC(=O)[C@H](Cc1ccccc1)NC(=O)c1cnccn1)B(O)O [Bortezomib] (partner 0.002 µM)
Method in brief: (§1)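 Values are medians from duplicate plates. Each reflects relative viability, defined as the nuclei count of treated wells over that of vehicle wells. Lung cancer cell lines in 1536-well plates were pin-tool dosed one day after seeding with one drug alone or with a fixed anchor-drug dose plus five library-drug doses (not always all listed) in √10 steps, then fixed, stained and imaged at 4× after 5 days.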

Idelalisib + Bortezomib = compound: CC[C@H](Nc1ncnc2[nH]cnc12)c1nc2cccc(F)c2c(=O)n1-c1ccccc1 [Idelalisib] + CC(C)C[C@H](NC(=O)[C@H](Cc1ccccc1)NC(=O)c1cnccn1)B(O)O [Bortezomib] (partner 0.002 µM)
Method in brief: as §1

Pemetrexed + Crizotinib = compound: Nc1nc2[nH]cc(CCc3ccc(C(=O)N[C@@H](CCC(=O)O)C(=O)O)cc3)c2c(=O)[nH]1 [Pemetrexed] + C[C@@H](Oc1cc(-c2cnn(C3CCNCC3)c2)cnc1N)c1c(Cl)ccc(F)c1Cl [Crizotinib] (partner 1 µM)
Method in brief: as §1

Idelalisib + Foretinib = compound: CC[C@H](Nc1ncnc2[nH]cnc12)c1nc2cccc(F)c2c(=O)n1-c1ccccc1 [Idelalisib] + COc1cc2c(Oc3ccc(NC(=O)C4(C(=O)Nc5ccc(F)cc5)CC4)cc3F)ccnc2cc1OCCCN1CCOCC1 [Foretinib] (partner 0.25 µM)
Method in brief: as §1

Row | Cell Line | relative viability (Pemetrexed + Bortezomib; first compound 0.002 µM) | relative viability (Pemetrexed + Bortezomib; first compound 0.006325 µM) | relative viability (Pemetrexed + Bortezomib; first compound 0.02 µM) | relative viability (Pemetrexed + Bortezomib; first compound 0.06325 µM) | relative viability (Pemetrexed + Bortezomib; first compound 0.2 µM) | relative viability (Idelalisib + Bortezomib; first compound 0.04 µM) | relative viability (Idelalisib + Bortezomib; first compound 0.1265 µM) | relative viability (Idelalisib + Bortezomib; first compound 1.265 µM) | relative viability (Idelalisib + Bortezomib; first compound 4 µM) | relative viability (Pemetrexed + Crizotinib; first compound 0.002 µM) | relative viability (Pemetrexed + Crizotinib; first compound 0.006325 µM) | relative viability (Pemetrexed + Crizotinib; first compound 0.02 µM) | relative viability (Pemetrexed + Crizotinib; first compound 0.06325 µM) | relative viability (Pemetrexed + Crizotinib; first compound 0.2 µM) | relative viability (Idelalisib + Foretinib; first compound 0.04 µM) | relative viability (Idelalisib + Foretinib; first compound 0.1265 µM) | relative viability (Idelalisib + Foretinib; first compound 0.4 µM) | relative viability (Idelalisib + Foretinib; first compound 1.265 µM) | relative viability (Idelalisib + Foretinib; first compound 4 µM) | relative viability (Idelalisib + Bortezomib; first compound 0.4 µM)
1 | LCLC-97TM1 | 0.523 | 1.08 | 0.679 | 0.32 | 0.131 | 0.357 | 0.76 | 0.569 | 0.835 | 0.263 | 0.352 | 0.404 | 0.338 | 0.224 | 1.1 | 0.961 | 0.877 | 1.03 | 0.776 | 
2 | NCI-H727 | 0.807 | 0.892 | 0.74 | 0.897 | 0.742 | 0.848 | 1.21 | 1.22 | 0.791 | 0.56 | 0.782 | 0.877 | 0.986 | 0.732 | 1.1 | 0.968 | 0.629 | 0.92 | 0.691 | 0.632
3 | NCI-H2228 | 0.934 | 0.918 | 1.07 | 0.754 | 0.339 | 1.07 | 0.983 | 1.05 | 1.03 | 0.424 | 0.514 | 0.409 | 0.358 | 0.31 | 0.874 | 0.835 | 0.614 | 0.87 | 0.788 | 1.09
4 | PC-3 [JPC-3] | 0.66 | 0.74 | 0.925 | 0.854 | 0.772 | 0.885 | 0.837 | 0.806 | 0.809 | 0.935 | 0.985 | 0.926 | 1.11 | 0.935 | 1.01 | 0.961 | 1.01 | 1.06 | 0.957 | 0.835
5 | NCI-H596 | 1.22 | 0.869 | 1.14 | 0.851 | 0.71 | 1 | 1.04 | 1.03 | 0.802 | 0.854 | 0.967 | 1.09 | 0.78 | 0.665 | 0.95 | 0.885 | 0.671 | 0.909 | 0.681 | 1
6 | NCI-H1299 | 1.02 | 1.01 | 1.03 | 1.03 | 0.987 | 1.03 | 1.03 | 1.09 | 1.03 | 0.962 | 0.942 | 0.98 | 0.881 | 0.927 | 1.14 | 1.16 | 1.11 | 1.16 | 1.2 | 1.02
7 | NCI-H460 | 1.06 | 1 | 1.16 | 0.177 | 0.0656 | 0.782 | 1.03 | 1.23 | 1.04 | 0.842 | 0.794 | 1.02 | 0.197 | 0.0567 | 1.03 | 1.06 | 0.962 | 1 | 0.896 | 1.1
8 | NCI-H647 |  | 1.07 | 1.35 | 0.703 | 0.295 | 0.998 | 1.13 | 0.905 | 0.737 |  | 0.921 | 1.14 | 0.785 | 0.32 | 1.18 | 1.35 |  | 0.895 | 0.746 | 0.813
9 | NCI-H838 | 0.895 | 0.708 | 1.07 | 0.63 | 0.208 | 0.835 | 0.95 | 1.03 | 0.635 | 0.83 | 0.814 | 1.03 | 0.935 | 0.415 | 1.08 | 0.947 | 0.912 | 0.931 | 0.821 | 0.476
10 | PC-14 | 0.873 | 0.85 | 0.808 | 0.544 | 0.188 | 0.913 | 0.996 | 0.982 | 0.814 | 0.86 | 0.888 | 0.838 | 0.709 | 0.207 | 1.05 | 0.988 | 0.933 | 0.995 | 0.968 | 0.947
11 | NCI-H1915 | 0.937 | 1.02 | 1.04 | 0.965 | 0.943 | 0.968 | 1.03 | 1.04 | 0.997 | 0.876 | 0.834 | 0.936 | 0.877 | 0.914 | 1.15 | 1.1 | 1.09 | 1.19 | 1.09 | 0.928
12 | 201T | 1.05 | 1.11 | 1.12 | 1.09 | 1.03 | 1.1 | 1.07 | 1.13 | 1.08 | 0.941 | 1.03 | 1.05 | 1.07 | 0.999 | 1.09 | 1.07 | 0.741 | 1.11 | 0.993 | 1.1
13 | NCI-H1437 | 0.31 | 0.478 | 0.514 | 0.313 | 0.26 | 0.567 | 0.532 | 0.833 | 0.37 | 0.948 | 0.854 | 0.965 | 0.586 | 0.281 | 1.24 | 1.32 | 1.24 | 1.36 | 1.42 | 0.452
14 | A-427 | 0.929 | 1.06 | 1.04 | 0.96 | 1.06 | 1.03 | 0.903 | 1.05 | 0.913 | 0.905 | 0.894 | 0.953 | 0.936 | 0.884 | 1.27 | 0.946 | 0.962 | 1.04 | 1.06 | 0.883
15 | HCC-366 | 0.97 | 1.04 | 1.13 | 1.05 | 0.661 | 1 | 1.11 | 1.03 | 0.931 | 0.49 | 0.404 | 0.701 | 0.586 | 0.476 | 0.947 | 0.867 | 0.889 | 0.971 | 0.938 | 1
16 | BEN | 0.838 | 0.847 | 1.01 | 0.855 | 0.688 | 0.985 | 0.709 | 0.803 | 0.732 | 0.992 | 0.859 | 0.896 | 0.787 | 0.715 | 0.751 | 0.567 | 0.539 | 0.856 | 0.661 | 0.756
